The nature of data set [1]: Single-dose acute toxicity (lethal dose, 50% kill of test animals). The conditions noted are these: rat, in vivo, rats, route not stated, read-out: LD50 (lethal dose as measured by a 50% kill of test animals). An excerpt:
Thus, 5-Thio-D-glucose is suitable for administering to animals and/or humans.

Data set [2] deals with transport of real D-glucose across a cell membrane. The settings on record: stated as known characteristic; cited from earlier work.

The source of these data is patent publication US3932625A, “Method and compound for parasite control” (Purdue Research Foundation, priority 1974, dated 1976).

Take `OC[C@H]1SC(O)[C@H](O)[C@@H](O)[C@@H]1O` (stereo partly drawn) [5-Thio-D-glucose]: in data set [1], the LD50 (commonly the dose at which mortality reaches 50%) was found to be 14000 mg/kg. Further, in data set [2], the “inhibition of transport of real D-glucose across a cell membrane” value is given as “inhibiting the transport of real D-glucose across a cell membrane”.
